Data reported in patent US20230088286A1, “USP7 INHIBITOR FOR USE IN THE TREATMENT OF CANCER” (ALMAC DISCOVERY LIMITED, priority 2020, published 2023).
Read-outs that look alike come from different tables or passages of the source.

Columns and labels:
[1] = tested on: tumour VEGFA mRNA; experiment: RNA-seq of syngeneic CT-26 tumour samples; assay type: in vivo, mouse
Protocol: Finally, mode of action of AD-04 in vivo was analysed by RNA-seq. […] Moreover, individual genes within HIF1A pathway were differentially modulated upon USP7 inhibition.

[2] = tested on: primary human dermal fibroblasts (HDF) co-cultured with stimulated PBMCs, with or without cancer cells (HT29 or H1299); settings: inhibitor concentration of 300 nM, 48 hours
Protocol: Biomarker changes relative to the vehicle control-treated systems are presented as log-transformed ratio.
BioMAP systems were employed using primary human cells. […] Human neonatal foreskin fibroblasts (HDFn) from 3 donors were pooled and cultured according to the supplier's (Lonza, Inc., Allendale, N.J.) recommendation. Peripheral blood mononuclear cells (PBMC) were prepared from buffy coats from normal human donors according to standard methods. Autoimmune HDFSAg system consisted of primary human dermal fibroblasts (HDF) co-cultured with PBMCs stimulated with T-cell receptor (SAg) to model chronic T cell activation and inflammation. Stromal Oncology Colorectal Cancer and Non-Small Cell Lung Cancer (NSCLC) panels were composed of cancer cells (HT29 or H1299), HDF and PBMCs stimulated with SAg. This model captures the interactions between tumour cells, stimulated immune cells and the host stromal network. […] Afterwards, biomarkers were measured in supernatants from co-cultures using ELISA as following: MCP-1, VCAM-1, Collagen I, IP-10, MMP-1, sIL-10, sIL-17A, sIL-17F, sIL-2, sIL-6, SRB, sTGFb, sTNFa, sVEGF, IL-8, MIG, MCSF, uPAR, Col-III, IP-10, EGFR, HGF, Pal-1, PBMC Cytotoxicity, tPA, uPA, sGranzyme, sPGE2, slFg, Sil-13, sMDC, Collagen III, MMP-9, TIMP-2, CEACAM5, Keratin 20. Biomarker levels are presented as log-transformed ratio

[3] = tested on: primary fibroblasts, immortalized fibroblasts, cancer cells; experiment: Scratch wound cell invasion assay through Matrigel; assay type: cell-based, human
Protocol: The scratch wound cell invasion assay was used to measure the ability of indicated cells to invade through Matrigel® basement membrane. Pictures were taken every 2 hours over 4 days using a time-lapse microscope and wound closure over time is presented in charts.
96-well ImageLock plates were coated with 0.1 mg/ml growth factor reduced Matrigel® and incubated for 1 h at 37° C. Cells were seeded a density of 10,000-40,000 cells/well in 100 μL/well and incubated overnight. Next day wounds were simultaneously created in all wells using the WoundMaker. After wounding, media was aspirated from each well and cells were washed twice with PBS. For invasion cells were overlayed with 50 μL of the Matrigel® top layer at 3mg/ml and incubated for 30 min at 37° C. […] Cell plates were placed into the IncuCyte live-cell analysis system and each well imaged using 10× objective every 2 hours for the total of 5-days. Images were analysed using IncuCyte scratch wound protocol and results presented as percentage of wound confluence.

[4] = tested on: HIF-1α; experiment: Cycloheximide chase assay, HIF-1α half-life
Protocol: Cells were lysed at the indicated time points (from 0 to 60 min) and samples analysed by immuno-blotting probing for HIF-1α. HIF-1α half-life was quantified by densitometry analysis. β-Actin was included as a normalization control.
Samples were subsequently collected at various time points for immuno-blot analysis probing for HIF-1α levels.
Cells were harvested and lysed at different time points and subjected to Western blot analysis using anti-HIF-1α antibody (D2U3T, Rabbit mAb #14179 Cell Signalling) and β-actin (Santa Cruz: A5316; 1:5000) as a loading control.

[5] = TSol; assay type: physicochemical
[6] = tested on: CT-26 tumours; experiment: Flow cytometry of tumour infiltrating immune cells, CT-26 model (ADC-159); assay type: in vivo, mouse; settings: ADC-159 alone or in combination with ICIs, 13 days
Protocol: FIG. 40: USP7 inhibitor ADC-159 modulates the tumour microenvironment immune compartment in vivo.
Harvested tumours were collected in HBSS medium, minced and incubated 30 minutes at 37° C. in non-enzymatic cell dissociation buffer followed by mechanical dissociation through a 70 μm filter. Viable cells were then enriched using Ficoll® gradient. All cells suspensions were count and one million viable cells were seeded in 96-well plates in 100 μL of Staining Buffer for acquisition. Non-specific binding was performed using mouse FcR blocking reagent. Viobility 405/452 Fixable Dye (Miltenyi Biotec) was used to assess cell viability. The antibodies directed against the CD45, CD335 (Nkp46), FoxP3 CD8a, CD4, CD3e, CD19, F4/80, CD11c, CD11 b (Miltenyi Biotec), Ly6G and Ly6C (Biolegend) were added. The stained cells were analyzed with a Fortessa X20 cytometer (BD Biosciences).

[7] = biological target: 3A4 (Homo sapiens, UniProt P08684); experiment: Cyp inhibition 3A4; assay type: in vitro ADME; settings: read-out: Cyps: 3A4
3A4, sequence (P08684 whole entry): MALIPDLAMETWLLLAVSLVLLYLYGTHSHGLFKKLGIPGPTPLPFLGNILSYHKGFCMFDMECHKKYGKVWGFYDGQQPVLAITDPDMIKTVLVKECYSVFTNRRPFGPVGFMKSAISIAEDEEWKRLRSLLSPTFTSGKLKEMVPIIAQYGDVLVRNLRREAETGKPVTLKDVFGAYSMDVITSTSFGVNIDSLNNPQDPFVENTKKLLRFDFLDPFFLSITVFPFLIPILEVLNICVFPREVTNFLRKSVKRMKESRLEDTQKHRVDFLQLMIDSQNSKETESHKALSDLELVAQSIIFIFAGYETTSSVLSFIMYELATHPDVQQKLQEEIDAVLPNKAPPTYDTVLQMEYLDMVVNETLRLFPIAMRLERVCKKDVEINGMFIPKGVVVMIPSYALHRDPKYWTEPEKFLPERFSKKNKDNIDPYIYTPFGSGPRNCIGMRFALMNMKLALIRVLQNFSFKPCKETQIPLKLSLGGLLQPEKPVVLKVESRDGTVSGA

[8] = biological target: hERG (Homo sapiens, UniProt Q12809); experiment: hERG
hERG, sequence (Q12809 whole entry): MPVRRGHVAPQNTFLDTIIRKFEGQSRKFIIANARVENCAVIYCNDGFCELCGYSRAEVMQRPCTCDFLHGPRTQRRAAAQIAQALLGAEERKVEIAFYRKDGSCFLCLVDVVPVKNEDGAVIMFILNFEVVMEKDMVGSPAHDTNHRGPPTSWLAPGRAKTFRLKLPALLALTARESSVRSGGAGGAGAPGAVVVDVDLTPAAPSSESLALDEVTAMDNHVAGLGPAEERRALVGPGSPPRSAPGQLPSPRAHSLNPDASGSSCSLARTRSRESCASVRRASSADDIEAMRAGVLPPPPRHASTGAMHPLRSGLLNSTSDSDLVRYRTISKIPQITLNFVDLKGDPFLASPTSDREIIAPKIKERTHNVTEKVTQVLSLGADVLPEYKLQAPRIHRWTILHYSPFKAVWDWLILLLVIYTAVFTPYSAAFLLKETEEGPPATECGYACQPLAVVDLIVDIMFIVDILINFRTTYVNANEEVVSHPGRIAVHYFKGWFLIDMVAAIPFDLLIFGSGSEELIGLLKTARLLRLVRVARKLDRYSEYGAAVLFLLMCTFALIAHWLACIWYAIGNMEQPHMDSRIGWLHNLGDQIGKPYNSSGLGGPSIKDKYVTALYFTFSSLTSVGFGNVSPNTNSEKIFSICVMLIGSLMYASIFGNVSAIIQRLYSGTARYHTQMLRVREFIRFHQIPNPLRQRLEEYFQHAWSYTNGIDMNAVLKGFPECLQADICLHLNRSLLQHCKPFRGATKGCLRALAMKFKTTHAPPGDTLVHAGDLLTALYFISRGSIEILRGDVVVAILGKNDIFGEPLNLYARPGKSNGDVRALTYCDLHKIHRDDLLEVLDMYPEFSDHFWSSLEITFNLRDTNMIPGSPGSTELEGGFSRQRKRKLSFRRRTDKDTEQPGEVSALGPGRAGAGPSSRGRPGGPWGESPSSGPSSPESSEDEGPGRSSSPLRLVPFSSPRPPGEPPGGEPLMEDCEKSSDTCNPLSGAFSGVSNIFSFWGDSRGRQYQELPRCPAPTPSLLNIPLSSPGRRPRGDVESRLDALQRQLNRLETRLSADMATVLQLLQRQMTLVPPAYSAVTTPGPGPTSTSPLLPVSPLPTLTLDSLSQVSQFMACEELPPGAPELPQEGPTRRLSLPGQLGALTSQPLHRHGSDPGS

[9] = Hep CLhep (h); assay type: in vitro ADME, human
[10] = biological target: USP7 (Homo sapiens, UniProt Q93009); experiment: USP7 FP; assay type: biochemical
USP7, sequence (Q93009 whole entry): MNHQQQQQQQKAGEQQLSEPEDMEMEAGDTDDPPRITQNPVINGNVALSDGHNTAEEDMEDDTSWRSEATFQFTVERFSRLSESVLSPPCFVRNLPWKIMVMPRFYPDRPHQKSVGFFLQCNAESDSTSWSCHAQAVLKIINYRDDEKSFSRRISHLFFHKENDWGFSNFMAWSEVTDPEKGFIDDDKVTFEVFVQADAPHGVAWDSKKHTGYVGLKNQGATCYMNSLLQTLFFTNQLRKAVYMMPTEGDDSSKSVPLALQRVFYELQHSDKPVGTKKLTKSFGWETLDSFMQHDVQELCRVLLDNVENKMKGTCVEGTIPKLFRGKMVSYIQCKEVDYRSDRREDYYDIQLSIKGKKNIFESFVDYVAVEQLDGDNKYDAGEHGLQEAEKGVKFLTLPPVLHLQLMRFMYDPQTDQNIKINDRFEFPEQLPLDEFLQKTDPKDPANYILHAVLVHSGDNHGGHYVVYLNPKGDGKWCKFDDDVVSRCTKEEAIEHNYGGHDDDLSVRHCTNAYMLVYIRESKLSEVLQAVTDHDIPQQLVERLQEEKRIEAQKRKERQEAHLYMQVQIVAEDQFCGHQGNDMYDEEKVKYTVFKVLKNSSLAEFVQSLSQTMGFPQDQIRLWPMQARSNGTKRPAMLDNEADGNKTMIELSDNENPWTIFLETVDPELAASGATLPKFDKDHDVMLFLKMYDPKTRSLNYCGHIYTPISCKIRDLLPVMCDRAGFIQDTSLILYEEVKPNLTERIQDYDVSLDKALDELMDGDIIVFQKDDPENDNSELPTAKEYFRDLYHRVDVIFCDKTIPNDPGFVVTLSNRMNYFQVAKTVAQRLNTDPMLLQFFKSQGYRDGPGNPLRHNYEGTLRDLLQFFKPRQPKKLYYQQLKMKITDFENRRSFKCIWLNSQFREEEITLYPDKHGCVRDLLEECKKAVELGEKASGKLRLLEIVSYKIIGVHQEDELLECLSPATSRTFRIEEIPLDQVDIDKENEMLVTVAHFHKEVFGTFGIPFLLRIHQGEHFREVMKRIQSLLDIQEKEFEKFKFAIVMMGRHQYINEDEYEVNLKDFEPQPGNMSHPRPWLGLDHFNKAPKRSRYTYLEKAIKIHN

[11] = Oral availability; assay type: in vivo; settings: compared to AD-04
[12] = KSol; assay type: physicochemical
[13] = tested on: CT-26 tumour cells in BALB/c mouse; experiment: CT-26 syngeneic tumour model with immune checkpoint inhibitors (ADC-159 study); assay type: in vivo
Protocol: FIG. 38: Effect of USP7 inhibition in combination with immune checkpoint inhibitors […] on the tumour microenvironment in vivo. […] Tumour volume of CT-26 xenograft implanted in immuno-competent syngeneic mice treated with vehicle control, ADC-159, anti-PD-L1, anti-CTLA-4 or in combination was measured twice weekly until day 13 post tumour implantation.
FIG. 39: USP7 inhibition leads to increase survival when combined with anti-PD-L1 and anti-CTLA-4 immune checkpoint inhibitors. […] (B) Individual growth curves show improved anti-tumour response when USP7 inhibitor ADC-159 is combined with ICIs. n=10 animals/group.
For the immune checkpoint inhibitor in vivo experiments, BALB/c mouse was injected subcutaneously in the right rear flank with 5×10^5 viable CT-26 tumour cells in 0.1 mL of PBS. ADC-159 (75 mg/kg and 100 mg/kg) was dosed daily while anti-PD-L1 or anti-CTLA4 (10 mg/kg) were dosed every 3 days. Tumour volume (mm^3) was measured with callipers three times a week using the equation: Tumour Volume (TV)=0.5((W)^2×L), where W is the shortest tumour diameter (width) and L is the longest perpendicular diameter (length), in millimetres. Body weights were measured on the same days during the dosing phase. […] Graphing and statistical analysis of tumour volume using one-way ANOVA followed by Dunnett's multiple comparisons test. […]

Row | SMILES | tumour VEGFA long isoform mRNA [1] | tumour VEGFA short isoform mRNA [1] | decrease in secreted VEGF (sVEGF) [2] | number of invading cells ([3]; cancer cells and immortalized fibroblasts) | invasion through Matrigel basement membrane ([3]; primary fibroblast, compared to vehicle-treated cells) | HIF-1α half-life ([4]; HDF, hypoxia, cycloheximide 100 μg/mL, AD-04 1 μM) | reduction of HIF-1α half-life ([4]; versus untreated cells (6 minutes and 36 seconds)) | TSol [5] | recruitment of cytotoxic lymphocytes into the tumour [6] | IC50 [7] | IC50 [8] | Hep CLhep (h) [9] | IC50 ([10]; asterisk not explained, read-out: USP7 FP IC50 (value in brackets marked *)) | IC50 ([10]; read-out: USP7 FP IC50) | oral availability [11] | KSol [12] | tumour growth inhibition (TGI) ([13]; Day 13) | survival ([13]; Kaplan-Meier, compared to vehicle controls)
1 | C[C@H](CC(=O)N1CCC(O)(Cn2cnc3c(-c4ccc(CN)cc4)n(C)nc3c2=O)CC1)c1ccccc1 [AD-04, (R)-3-(4-(Aminomethyl)phenyl)-6-((4-hydroxy-1-(3-phenylbutanoyl)piperidin-4-yl)methyl)-2-methyl-2H-pyrazolo[4,3-d]pyrimidin-7(6H)-one] | increase | decrease | 3 log fold | did not change | greatly reduced | 4 min | 40% | – | – | – | – | – | – | – | – | – | – | –
2 | CC1(C(=O)N2CCC(O)(Cn3cnc4c(cc(Cl)n4-c4ccc5c(c4)CCO5)c3=O)CC2)CC1 [ADC-159, 6-Chloro-7-(2,3-dihydrobenzofuran-5-yl)-3-((4-hydroxy-1-(1-methylcyclopropane-1-carbonyl)piperidin-4-yl)methyl)-3,7-dihydro-4H-pyrrolo[2,3-d]pyrimidin-4-One] | – | – | – | – | – | – | – | 500 µM | increases recruitment | > 20000 nM | 15600 nM | 9 | 159 nM | 386 nM | improved oral availability | 199 µM | 23% | modest but significant increase
